Data taken from US7935722B2 (Eli Lilly and Company, priority 2005, dated 2011).
Like-named read-outs stand apart in the source and are kept apart here.

Tests used:
[1] = target: T1, human androgen receptor (AR) (Homo sapiens, UniProt P10275); experiment: C2C12 AR/ARE reporter assay; format: cell-based
T1 construct: expressed in transfected cells; host or cells: mouse myoblast C2C12 cells, transiently co-transfected
T1 sequence (P10275 1-920): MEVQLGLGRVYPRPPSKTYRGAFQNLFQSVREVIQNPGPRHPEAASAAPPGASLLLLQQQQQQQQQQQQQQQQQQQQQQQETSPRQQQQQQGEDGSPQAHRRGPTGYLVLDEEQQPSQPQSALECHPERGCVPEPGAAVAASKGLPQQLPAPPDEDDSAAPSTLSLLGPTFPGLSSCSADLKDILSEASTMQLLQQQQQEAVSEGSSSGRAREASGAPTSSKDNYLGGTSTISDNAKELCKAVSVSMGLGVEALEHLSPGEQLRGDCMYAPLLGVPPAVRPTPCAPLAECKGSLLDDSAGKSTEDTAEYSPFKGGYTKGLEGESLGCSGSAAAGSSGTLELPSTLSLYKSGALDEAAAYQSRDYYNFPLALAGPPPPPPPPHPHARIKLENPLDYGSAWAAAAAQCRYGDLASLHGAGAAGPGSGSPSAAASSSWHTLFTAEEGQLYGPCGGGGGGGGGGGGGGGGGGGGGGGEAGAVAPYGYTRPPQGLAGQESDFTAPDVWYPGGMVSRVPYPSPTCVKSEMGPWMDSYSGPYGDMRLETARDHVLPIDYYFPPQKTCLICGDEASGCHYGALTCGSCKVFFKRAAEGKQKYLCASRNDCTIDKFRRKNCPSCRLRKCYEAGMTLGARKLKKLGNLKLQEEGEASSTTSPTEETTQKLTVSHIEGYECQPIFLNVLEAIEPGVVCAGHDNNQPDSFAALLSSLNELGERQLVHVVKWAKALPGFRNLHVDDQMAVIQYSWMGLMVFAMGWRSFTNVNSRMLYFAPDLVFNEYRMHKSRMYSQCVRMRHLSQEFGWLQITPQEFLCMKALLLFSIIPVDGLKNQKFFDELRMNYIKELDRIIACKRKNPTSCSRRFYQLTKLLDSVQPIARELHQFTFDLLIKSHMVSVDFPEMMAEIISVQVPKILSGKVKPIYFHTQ
In short: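 Mouse C2C12 myoblasts co-transfected with AR/ARE reporter were plated in charcoal-stripped serum and treated for 48 h with compound from about 0.01 nM to 10 μM. Luciferase activity gave EC50 by 4-parameter logistic fit. Efficacy is expressed as % of maximal stimulation by 10 nM methyltrienolone.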

[2] = target: T2, human AR (androgen receptor) (Homo sapiens, UniProt P10275); experiment: Steroid hormone nuclear receptor binding assay, AR binding
T2 construct: expressed in transfected cells; host or cells: 293 cells (293-AR lysate)
T2 sequence (P10275 1-920): T1 sequence (P10275 1-920)
In short: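 Competition binding with lysates of 293 cells overexpressing human AR, [3H]-methyltrienolone tracer, compounds from about 0.01 nM to 10 μM, overnight at 4 °C; non-specific binding set with 500 nM methyltrienolone. Bound tracer counted by scintillation after charcoal-dextran separation; IC50 converted to Ki by Cheng-Prusoff using Kd from saturation binding.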

[3] = C2C12, read-out: C2C12 % Efficacy

SMILES: CC(C)C(=O)NC1CCc2c(c3cc(Br)ccc3n2Cc2cccc(C#N)c2)C1 (stereo not shown) [Example 38]
- melting point: 228 to 230 °C
- EC50 [1]: 0.108 µM
- Emax [1, 3]: 79.5%
- Ki [2]: 0.0097 µM

SMILES: COc1ccc(Cn2c3c(c4cc(F)ccc42)CC(NC(=O)C(C)C)CC3)cc1 (stereo not shown) [Example 15]
- melting point: 178 to 181 °C
- Emax [1, 3]: 15.3%
- Ki [2]: 0.275 µM

SMILES: CC(C)C(=O)NC1CCc2c(c3cc(S(C)(=O)=O)ccc3n2Cc2cccc(F)c2)C1 (stereo not shown) [Example 53]
- melting point: 205 to 207 °C
- EC50 [1]: 0.0243 µM
- Emax [1, 3]: 107%
- Ki [2]: 0.0216 µM

SMILES: CC(C)C(=O)NC1CCc2c(c3cc(C(N)=O)ccc3n2Cc2cccc(F)c2)C1 (stereo not shown) [Example 63, 9-(3-Fluorobenzyl)-6-isobutyrylamino-6,7,8,9-tetrahydro-5H-carbazole-3-carboxylic acid amide]
- melting point: 192 to 194 °C
- EC50 [1]: 0.0669 µM
- Emax [1, 3]: 113%
- Ki [2]: 0.0393 µM

SMILES: CC(C)C(=O)NC1CCc2c(c3cc(-c4ccccn4)ccc3n2Cc2cccc(F)c2)C1 (stereo not shown) [Example 131, N-[9-(3-Fluorobenzyl)-6-pyridin-2-yl-2,3,4,9-tetrahydro-1H-carbazol-3-yl]isobutyramide]
- melting point: 228 to 230 °C
- EC50 [1]: 0.0652 µM
- Emax [1, 3]: 91.3%
- Ki [2]: 0.118 µM

SMILES: Cc1cccc2c3c(n(Cc4cccc(F)c4)c12)CCC(NC(=O)C(C)C)C3 (stereo not shown) [Example 60]
- melting point: 188 to 191 °C
- EC50 [1]: 0.299 µM
- Emax [1, 3]: 74.2%
- Ki [2]: 0.0359 µM

SMILES: CC(C)C(=O)NC1CCc2c(c3cc(Br)ccc3n2Cc2ccccc2F)C1 (stereo not shown) [Example 31]
- melting point: 194 to 197 °C
- EC50 [1]: 0.0587 µM
- Emax [1, 3]: 70.8%
- Ki [2]: 0.0053 µM

SMILES: Cc1ccc2c(c1)c1c(n2Cc2ccccc2C#N)CCC(NC(=O)C(C)C)C1 (stereo not shown) [Example 46]
- melting point: 218 to 220 °C
- Emax [1, 3]: 40.5%
- Ki [2]: 0.137 µM

SMILES: CC(C)C(=O)NC1CCc2c(c3cc4c(cc3n2Cc2cccc(F)c2)OCO4)C1 (stereo not shown) [Example 98, N-[9-(3-Fluoro-benzyl)-6,7,8,9-tetrahydro-5H-1,3-dioxa-9-aza-cyclopenta[b]fluoren-6-yl]-isobutyramide]
- melting point: 250 to 255 °C
- EC50 [1]: 0.0408 µM
- Emax [1, 3]: 104%
- Ki [2]: 0.007 µM

SMILES: CC(C)C(=O)NC1CCc2c(c3cc(F)ccc3n2Cc2cccc(C#N)c2)C1 (stereo not shown) [Example 11]
- melting point: 184 to 186 °C
- EC50 [1]: 2.18 µM
- Emax [1, 3]: 36.3%
- Ki [2]: 0.0615 µM

SMILES: COc1ccccc1Cn1c2c(c3cc(F)ccc31)CC(NC(=O)C(C)C)CC2 (stereo not shown) [Example 6]
- melting point: 196 to 198 °C
- EC50 [1]: 1.77 µM
- Emax [1, 3]: 49.7%
- Ki [2]: 0.156 µM

SMILES: CO/N=C/c1ccc2c(c1)c1c(n2Cc2cccc(F)c2)CC[C@@H](NC(=O)C2CC2)C1 [Example 205, (R)-Cyclopropanecarboxylic acid[9-(3-fluoro-benzyl)-6-(1-methoxyimino-methyl)-2,3,4,9-tetrahydro-1H-carbazol-3-yl]-amide]
- melting point: 200 to 203 °C
- EC50 [1]: 0.0005 µM
- Emax [1, 3]: 88.4%
- Ki [2]: 0.003 µM

SMILES: CC(C)C(=O)NC1CCc2c(c3cc(C#N)ccc3n2Cc2ccc(F)cn2)C1 (stereo not shown) [Example 181, N-[6-Cyano-9-(5-fluoro-pyridin-2-ylmethyl)-2,3,4,9-tetrahydro-1H-carbazol-3-yl]-isobutyramide]
- melting point: 235 to 238 °C (dec.)
- EC50 [1]: 0.0878 µM
- Emax [1, 3]: 93.5%
- Ki [2]: 0.0346 µM

SMILES: CC(C)C(=O)NC1CCc2c(c3cc(C#N)ccc3n2Cc2ccccc2OC(F)F)C1 (stereo not shown) [Example 97, N-[6-Cyano-9-(2-difluoromethoxy-benzyl)-2,3,4,9-tetrahydro-1H-carbazol-3-yl]-isobutyramide]
- melting point: 217 to 219 °C
- EC50 [1]: 0.0328 µM
- Emax [1, 3]: 102%
- Ki [2]: 0.0046 µM

SMILES: Cc1ccc2c(c1)c1c(n2Cc2ccccc2)CCC(NC(=O)C(C)C)C1 (stereo not shown) [Example 42]
- melting point: 197 to 199 °C
- EC50 [1]: 0.0304 µM
- Emax [1, 3]: 73%
- Ki [2]: 0.0636 µM

SMILES: CC(C)C(=O)NC1CCc2c(c3cc(Br)ccc3n2Cc2cccc(F)c2)C1 (stereo not shown) [Example 1, N-[9-(3-Fluorobenzyl)-6-bromo-2,3,4,9-tetrahydro-1H-carbazol-3-yl]isobutyramide]
- melting point: 177 to 179 °C
- EC50 ([1]; read-out: C2C12 EC50, C2C12 AR/ARE reporter assay, average of n trials): 0.0023 µM
- Ki ([2]; read-out: AR binding Ki, average of n trials): 0.0026 µM

SMILES: CCOC(=O)Nc1ccc2c(c1)c1c(n2Cc2cccc(F)c2)CC[C@@H](NC(=O)C(C)C)C1 [Example 189, (R)-[9-(3-Fluoro-benzyl)-6-isobutyrylamino-6,7,8,9-tetrahydro-5H-carbazol-3-yl]-carbamic acid ethyl ester]
- melting point: 169 to 171 °C
- Emax ([1]; C2C12 AR/ARE reporter assay, average of n trials, read-out: C2C12 % Efficacy): 52.9%
- EC50 ([1]; C2C12 AR/ARE reporter assay, average of n trials, read-out: C2C12 EC50): 0.0012 µM
- Ki ([2]; average of n trials, read-out: AR binding Ki): 0.0083 µM

SMILES: CO/N=C/c1ccc2c(c1)c1c(n2Cc2ccccn2)CC[C@@H](NC(=O)C2CC2)C1 [Example 208, (R)-Cyclopropanecarboxylic acid[6-(1-methoxyimino-methyl)-9-pyridin-2-ylmethyl-2,3,4,9-tetrahydro-1H-carbazol-3-yl]-amide]
- melting point: 215 to 217 °C
- EC50 [1]: 0.0038 µM
- Emax [1, 3]: 96.3%
- Ki [2]: 0.0211 µM

SMILES: CC(C)C(=O)N[C@@H]1CCc2c(c3cc(-c4ccno4)ccc3n2Cc2cccc(F)c2)C1 [Example 192, (R)-N-[9-(3-Fluoro-benzyl)-6-isoxazol-5-yl-2,3,4,9-tetrahydro-1H-carbazol-3-yl]-isobutyramide]
- melting point: 238 to 241 °C
- EC50 [1]: 0.0077 µM
- Emax [1, 3]: 66.5%
- Ki [2]: 0.0026 µM

SMILES: CC(C)C(=O)NC1CCc2c(c3cc(Cl)ccc3n2Cc2ccc(Cl)cc2)C1 (stereo not shown) [Example 26]
- melting point: 176 to 178 °C
- EC50 [1]: 0.301 µM
- Emax [1, 3]: 33%
- Ki [2]: 0.0166 µM

SMILES: CC(C)C(=O)NC1CCc2c(c3cc(Br)ccc3n2Cc2ccccc2)C1 (stereo not shown) [Example 30]
- melting point: 173 to 177 °C
- Emax [1, 3]: 87%

SMILES: CC(C)C(=O)NC1CCc2c(c3cc(Cl)ccc3n2Cc2cccc(C#N)c2)C1 (stereo not shown) [Example 24]
- melting point: 225 to 228 °C (dec.)
- Emax [1, 3]: 48.9%

SMILES: COc1cccc(Cn2c3c(c4cc(Cl)ccc42)CC(NC(=O)C(C)C)CC3)c1 (stereo not shown) [Example 23]
- melting point: 178 to 181 °C
- Emax [1, 3]: 54.4%

SMILES: Cc1ccc2c(c1)c1c(n2Cc2cccc(F)c2)CCC(NC(=O)C(C)C)C1 (stereo not shown) [Example 47]
- melting point: 215 to 217 °C
- Emax [1, 3]: 86.3%

SMILES: CC(C)C(=O)NC1CCc2c(c3cc(Cl)ccc3n2Cc2cc(F)cc(F)c2)C1 (stereo not shown) [Example 29]
- melting point: 207 to 210 °C
- Emax [1, 3]: 64%

SMILES: CC(C)C(=O)NC1CCc2c(c3cc(Cl)ccc3n2Cc2ccccc2)C1 (stereo not shown) [Example 16]
- melting point: 174 to 176 °C
- Emax [1, 3]: 86%

SMILES: CC(C)C(=O)NC1CCc2c(c3ccc(Cl)cc3n2Cc2cccc(F)c2)C1 (stereo not shown) [Example 56]
- melting point: 233 to 235 °C
- Emax [1, 3]: 66.6%

SMILES: CC(C)C(=O)NC1CCc2c(c3cc(Cl)ccc3n2Cc2ccc(F)cc2)C1 (stereo not shown) [Example 25]
- melting point: 175 to 178 °C
- Emax [1, 3]: 62.7%

SMILES: CC(C)C(=O)NC1CCc2c(c3cc(Cl)ccc3n2Cc2cccc(F)c2)C1 (stereo not shown) [Example 21]
- melting point: 187 to 189 °C
- Emax [1, 3]: 81%

SMILES: COc1ccccc1Cn1c2c(c3cc(Br)ccc31)CC(NC(=O)C(C)C)CC2 (stereo not shown) [Example 34]
- melting point: 108 to 111 °C
- Emax [1, 3]: 103%
